Test results reported in patent publication US8859530B2, “Co-administration of steroids and zoledronic acid to prevent and treat osteoarthritis” (Voltarra Pharmaceuticals, Inc., priority 2013, dated 2014).

Experiments:
[1] = in vivo; cited from earlier work
[2] = system: subjects with osteoarthritis; assay: Joint pain (VAS scale) in the osteoarthritis subjects of the first study; format: in vivo, human; settings: six months after the single infusion (one ZP subject up to one year); three ZP, two Zoledronic Acid subjects with osteoarthritis
Procedure: Of the 8 subjects, five had osteoarthritis. Of these five, three were treated with ZP and two with Zoledronic Acid.

patients = settings: Zometa Prescribing Information; cited from earlier work
[3] = system: patients with osteoporosis; assay: Zoledronic Acid alone or with prednisone (ZP), single infusion in osteoporosis patients: post-dosing syndrome; format: in vivo, human; settings: four patients per arm
Procedure: Eight patients with osteoporosis were treated with a single infusion of Zoledronic Acid alone (four patients) or with a single infusion of the combination of prednisone and Zoledronic Acid (ZP, four patients).

[4] = system: subjects with knee osteoarthritis; assay: Single blind, single center study of intravenous ZP or ZA in knee osteoarthritis; format: in vivo, human
Procedure: In a further study, this one, a single blind, single center study, 20 subjects with knee osteoarthritis were randomized to either intravenous ZP or ZA in a 1:1 ratio. Subjects were followed for six months. Efficacy was measured by change in pain in 100 mm visual analogue score (VAS) from baseline (mean values). Patients were asked about the level of pain without taking rescue medications (NSAIDS or tramadol). Bone mineral density (BMD) was determined at baseline and six months to detect any effect on bone.

arthritis pain = settings: cited from earlier work

SMILES | half-life (t1/2α) [1] | change in joint pain (VAS scale) [2] | patients affected by post-dosing syndrome (PDS) (patients) | patients suffering from post-dosing syndrome (PDS) [3] | ΔBMD ([4]; bone mineral density, baseline versus six months) | Δ Mean VAS ([4]; change in pain in 100 mm visual analogue score from baseline (mean values), six months follow-up, without rescue medications) | PDS (# reporting/total) ([4]; intravenous, 10 subjects per cohort, knee osteoarthritis) | effect on arthritis pain (arthritis pain; IV, by itself) | duration of effect (arthritis pain; in vivo)
O=P(O)(O)C(O)(Cn1ccnc1)P(=O)(O)O [Zoledronic Acid] | about 0.24 hours | same (one) or worse (one) level of pain | ≤ 44% | All four | 0 | −10 mm | 6/10 | – | –
C[C@]12C=CC(=O)C=C1CC[C@@H]1[C@@H]2[C@@H](O)C[C@@]2(C)[C@H]1CC[C@]2(O)C(=O)CO [Prednisolone] | – | – | – | – | – | – | – | no effect on arthritis pain | transient, less than a day
